Measurements as given in patent US12428422B2, “Purine derivatives as SIK-3 inhibitors” (RHIZEN PHARMACEUTICALS AG, priority 2020, dated 2025).

How the values were obtained:
Assay type in all cases: cell-based
TNFα mRNA = TNFα mRNA expression in LPS-stimulated mouse bone marrow derived macrophages (real-time PCR); details: LPS (1 μg/ml) stimulated mouse BMDM; 1 μM Compound M1 vs 1 μM dasatinib (FIG. 2A)
Protocol: Assay 2: Evaluation of mRNA Expression Levels of IL-10, TNFα, and Arginase-1 in LPS-Stimulated (1 μg/ml) Mouse Bone Marrow Derived Macrophages (BMDM).
Mouse-Bone Marrow Cell Isolation
• Femur bones from healthy mice were collected taking all aseptic precautions. • Bones were severed proximal to each joint using sterile scissors. • A 10 ml syringe with 25-G needle was filled with cold sterile wash medium (DMEM/F12 medium+10% FBS (fetal bovine serum)+1% Penicillin-streptomycin). • The needle was inserted into bone marrow cavity of femur and the cavity was flushed with 2-5 mL of wash medium, until the bone cavity appeared white. • Wash medium was collected in a 50 mL tube and centrifuged at 500×g for 10 minutes at room temperature. • Cells were resuspended in DMEM/F12 medium and cell count was taken. […]
Fold change in the mRNA expression was calculated by 2^−ΔΔCt method and data was plotted using GraphPad Prism.

SK-OV-3 cell lines = assay: MTT cell growth inhibition, combination with taxol, SK-OV-3; details: combined with taxol, 72 hrs
Protocol: Assay 6: Combination of Compound M1 with Standard Agents in Different Cell Lines
Day 0 • The cells were pelleted and counted. • Cells were plated at desired density (100 μl/well) in complete media in a 96-well plate in triplicates. A column for Day “0” reading was also seeded. (18-20 hrs after initial plating and before addition of the inhibitors) • Plates were incubated at 37° C. and 5% CO2. Day 1 • 10 μl of MTT (5 mg/ml) were added to the column designated for Day “0”. It was mixed well and incubated at 37° C. and 5% CO2 for 3.5 h. Cells were pelleted down at 4000 rpm for 10 minutes. • Media was aspirated out and 150 μl of DMSO were added to the cells and mixed by pipetting to dissolve the crystals • The plate was read at A560 nm and A640 nm. Day 2 • A series of dilutions of the inhibitors were initially made in 100% DMSO and further diluted in growth medium. • Cells were treated with either single agent of DMSO, compound M1, taxol, and a combination of compound M1 and taxol (MDA-MB-231, MCF-7, ZR.75.1 and SK-OV-3). […] Crystals were dissolved by repeated pipetting. • The plate was read at A560 nm and A640 nm. […]
(§1) Reference absorbance values were subtracted from test absorbance values. Day 0 values were subtracted from final day absorbance values for determining cell growth. % Cell growth inhibitions were calculated.

OVCAr-3 cell lines = assay: MTT cell growth inhibition, combination with talzoparib, OVCAR-3; details: combined with talzoparib, 72 hrs
Protocol: Assay 5: Combination of Compound M1 with Standard Agents in Different Cell Lines
Day 0 • The cells were pelleted and counted. • Cells were plated at desired density (100 μl/well) in complete media in a 96-well plate in triplicates. A column for Day “0” reading was also seeded. (18-20 hrs after initial plating and before addition of the inhibitors) • Plates were incubated at 37° C. and 5% CO2. Day 1 • 10 μl of MTT (5 mg/ml) were added to the column designated for Day “0”. It was mixed well and incubated at 37° C. and 5% CO2 for 3.5 h. Cells were pelleted down at 4000 rpm for 10 minutes. • Media was aspirated out and 150 μl of DMSO were added to the cells and mixed by pipetting to dissolve the crystals • The plate was read at A560 nm and A640 nm. Day 2 • A series of dilutions of the inhibitors were initially made in 100% DMSO and further diluted in growth medium. • Cells were treated with either single agent of DMSO, compound M1, talzoparib, and combination of compound M1 and talzoparib (OVCAr-3 and SK-OV-3). […]
The plate was read at A560 nm and A640 nm.
as §1

Q: Which results are given for `CC[C@H](Nc1ncnc2[nH]c(O)nc12)c1oc2ccccc2c(=O)c1-c1cccc(F)c1` [Compound M1, (S)-3-(3-fluorophenyl)-2-(1-((8-hydroxy-9H-purin-6-yl)amino)propyl)-4H-chromen-4-one]?
A: TNFα mRNA expression, potency relative to dasatinib (TNFα mRNA): more potent than dasatinib; cell growth inhibition in combination (SK-OV-3 cell lines): synergistic results; cell growth inhibition in combination (OVCAr-3 cell lines): synergistic results
